Assay results reported in the kinase profiling compilation of Christmann-Franck et al. (2016).

Legend:
PKN1 (human) = PKN1 (human) (UniProt Q16512); test: IMAP-FP
PLK2 (human) = PLK2 (human) (UniProt Q9NYY3); test: IMAP-FP
SRPK1 (human) = SRPK1 (human) (UniProt Q96SB4); test: IMAP-FP
BTK (human) = BTK (human) (UniProt Q06187); test: Caliper, Mobility shift assay off-chip
CLK3 (human) = CLK3 (human) (UniProt P49761); test: Caliper, Mobility shift assay off-chip
IGF1R (human) = IGF1R (human) (UniProt P08069); test: Caliper, Mobility shift assay off-chip
PAK6 (human) = PAK6 (human) (UniProt Q9NQU5); test: Caliper, Mobility shift assay off-chip
STK38 (human) = STK38 (human) (UniProt Q15208); test: Caliper, Mobility shift assay off-chip
SYK (human) = SYK (human) (UniProt P43405); test: Caliper, Mobility shift assay off-chip
BMPR1A (human) = BMPR1A (human) (UniProt P36894); test: ELISA
LIMK1 (human) = LIMK1 (human) (UniProt P53667); test: ELISA
MAP2K1 (human) = MAP2K1 (human) (UniProt Q02750); test: ELISA
MAP2K2 (human) = MAP2K2 (human) (UniProt P36507); test: ELISA
MAP2K3 (human) = MAP2K3 (human) (UniProt P46734); test: ELISA
MAP2K4 (human) = MAP2K4 (human) (UniProt P45985); test: ELISA
MAP2K5 (human) = MAP2K5 (human) (UniProt Q13163); test: ELISA
MAP2K6 (human) = MAP2K6 (human) (UniProt P52564); test: ELISA
MAP2K7 (human) = MAP2K7 (human) (UniProt O14733); test: ELISA
MAP3K1 (human) = MAP3K1 (human) (UniProt Q13233); test: ELISA
MAP3K10 (human) = MAP3K10 (human) (UniProt Q02779); test: ELISA
MAP3K11 (human) = MAP3K11 (human) (UniProt Q16584); test: ELISA
MAP3K12 (human) = MAP3K12 (human) (UniProt Q12852); test: ELISA
MAP3K2 (human) = MAP3K2 (human) (UniProt Q9Y2U5); test: ELISA
MAP3K3 (human) = MAP3K3 (human) (UniProt Q99759); test: ELISA
MAP3K4 (human) = MAP3K4 (human) (UniProt Q9Y6R4); test: ELISA
MAP3K5 (human) = MAP3K5 (human) (UniProt Q99683); test: ELISA
MAP3K8 (human) = MAP3K8 (human) (UniProt P41279); test: ELISA
MAP3K9 (human) = MAP3K9 (human) (UniProt P80192); test: ELISA
MOS (human) = MOS (human) (UniProt P00540); test: ELISA
PLK4 (human) = PLK4 (human) (UniProt O00444); test: ELISA
RAF1 (human) = RAF1 (human) (UniProt P04049); test: ELISA
STK11 (human) = STK11 (human) (UniProt Q15831); test: ELISA
TTK (human) = TTK (human) (UniProt P33981); test: ELISA
WEE1 (human) = WEE1 (human) (UniProt P30291); test: ELISA
Chain of WEE1 (human) (P30291 whole entry, looked up): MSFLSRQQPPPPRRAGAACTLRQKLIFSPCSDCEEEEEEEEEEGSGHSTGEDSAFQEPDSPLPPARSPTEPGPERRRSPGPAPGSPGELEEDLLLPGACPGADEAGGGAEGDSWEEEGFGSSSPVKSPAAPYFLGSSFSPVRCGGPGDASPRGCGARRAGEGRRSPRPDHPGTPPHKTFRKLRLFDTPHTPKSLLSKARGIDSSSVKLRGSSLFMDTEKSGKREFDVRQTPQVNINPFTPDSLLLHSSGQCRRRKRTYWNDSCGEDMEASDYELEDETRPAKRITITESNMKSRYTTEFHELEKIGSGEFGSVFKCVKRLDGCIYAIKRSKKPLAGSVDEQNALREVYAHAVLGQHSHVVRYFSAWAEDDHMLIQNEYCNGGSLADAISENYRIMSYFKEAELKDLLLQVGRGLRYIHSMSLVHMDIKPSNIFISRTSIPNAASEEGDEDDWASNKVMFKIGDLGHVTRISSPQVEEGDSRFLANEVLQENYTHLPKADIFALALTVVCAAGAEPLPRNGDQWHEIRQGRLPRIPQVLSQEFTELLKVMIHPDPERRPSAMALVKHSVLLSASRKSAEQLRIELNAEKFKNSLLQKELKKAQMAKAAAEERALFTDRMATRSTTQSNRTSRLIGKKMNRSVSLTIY

Chain of MAP2K6 (human) (P52564 whole entry, looked up): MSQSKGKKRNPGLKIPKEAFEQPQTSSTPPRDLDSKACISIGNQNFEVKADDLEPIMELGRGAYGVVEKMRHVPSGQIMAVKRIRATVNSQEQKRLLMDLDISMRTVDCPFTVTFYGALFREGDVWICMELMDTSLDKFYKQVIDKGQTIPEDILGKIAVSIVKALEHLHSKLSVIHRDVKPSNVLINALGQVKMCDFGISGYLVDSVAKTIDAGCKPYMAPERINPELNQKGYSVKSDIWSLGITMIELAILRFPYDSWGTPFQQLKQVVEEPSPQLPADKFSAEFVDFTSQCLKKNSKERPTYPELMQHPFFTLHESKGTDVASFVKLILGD
Chain of MAP3K4 (human) (Q9Y6R4 whole entry, looked up): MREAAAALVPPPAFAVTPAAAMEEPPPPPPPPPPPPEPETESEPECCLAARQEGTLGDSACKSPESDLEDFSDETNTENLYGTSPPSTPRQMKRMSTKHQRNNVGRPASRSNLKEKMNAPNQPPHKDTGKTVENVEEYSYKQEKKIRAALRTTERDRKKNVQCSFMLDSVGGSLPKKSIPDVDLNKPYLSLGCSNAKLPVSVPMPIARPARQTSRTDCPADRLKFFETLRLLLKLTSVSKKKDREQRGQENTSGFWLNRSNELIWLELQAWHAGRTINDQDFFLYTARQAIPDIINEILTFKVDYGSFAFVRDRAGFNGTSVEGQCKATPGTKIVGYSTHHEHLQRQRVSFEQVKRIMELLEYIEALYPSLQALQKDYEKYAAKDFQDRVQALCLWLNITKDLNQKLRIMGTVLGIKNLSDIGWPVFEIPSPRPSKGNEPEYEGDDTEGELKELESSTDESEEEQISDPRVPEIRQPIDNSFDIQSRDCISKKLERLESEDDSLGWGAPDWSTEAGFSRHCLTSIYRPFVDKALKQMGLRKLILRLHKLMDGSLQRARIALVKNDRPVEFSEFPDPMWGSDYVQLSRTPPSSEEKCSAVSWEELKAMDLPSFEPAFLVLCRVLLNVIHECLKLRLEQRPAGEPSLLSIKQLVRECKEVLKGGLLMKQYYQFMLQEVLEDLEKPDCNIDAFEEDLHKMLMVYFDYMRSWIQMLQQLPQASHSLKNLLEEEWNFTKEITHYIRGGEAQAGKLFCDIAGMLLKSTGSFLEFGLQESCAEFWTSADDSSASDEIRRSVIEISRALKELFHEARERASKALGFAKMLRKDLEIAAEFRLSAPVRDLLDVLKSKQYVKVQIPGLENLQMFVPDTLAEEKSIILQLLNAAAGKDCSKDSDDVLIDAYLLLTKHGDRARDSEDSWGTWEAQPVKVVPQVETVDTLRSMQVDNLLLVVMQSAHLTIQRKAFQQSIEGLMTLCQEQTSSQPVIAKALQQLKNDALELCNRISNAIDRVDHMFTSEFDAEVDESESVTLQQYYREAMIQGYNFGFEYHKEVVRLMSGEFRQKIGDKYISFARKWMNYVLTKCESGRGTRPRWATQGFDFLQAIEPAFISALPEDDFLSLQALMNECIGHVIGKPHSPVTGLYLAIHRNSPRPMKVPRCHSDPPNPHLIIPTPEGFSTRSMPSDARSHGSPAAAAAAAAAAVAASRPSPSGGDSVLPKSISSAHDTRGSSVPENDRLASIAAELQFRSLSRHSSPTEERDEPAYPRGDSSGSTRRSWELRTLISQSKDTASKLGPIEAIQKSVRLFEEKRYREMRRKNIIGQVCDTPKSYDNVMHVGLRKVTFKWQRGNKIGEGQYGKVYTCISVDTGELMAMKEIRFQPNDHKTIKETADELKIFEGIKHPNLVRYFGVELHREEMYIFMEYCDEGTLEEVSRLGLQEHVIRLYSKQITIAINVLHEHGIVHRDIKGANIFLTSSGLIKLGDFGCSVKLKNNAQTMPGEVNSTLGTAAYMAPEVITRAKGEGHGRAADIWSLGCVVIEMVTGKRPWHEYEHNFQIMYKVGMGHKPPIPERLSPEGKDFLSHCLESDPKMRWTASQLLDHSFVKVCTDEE
Chain of BTK (human) (Q06187 whole entry, looked up): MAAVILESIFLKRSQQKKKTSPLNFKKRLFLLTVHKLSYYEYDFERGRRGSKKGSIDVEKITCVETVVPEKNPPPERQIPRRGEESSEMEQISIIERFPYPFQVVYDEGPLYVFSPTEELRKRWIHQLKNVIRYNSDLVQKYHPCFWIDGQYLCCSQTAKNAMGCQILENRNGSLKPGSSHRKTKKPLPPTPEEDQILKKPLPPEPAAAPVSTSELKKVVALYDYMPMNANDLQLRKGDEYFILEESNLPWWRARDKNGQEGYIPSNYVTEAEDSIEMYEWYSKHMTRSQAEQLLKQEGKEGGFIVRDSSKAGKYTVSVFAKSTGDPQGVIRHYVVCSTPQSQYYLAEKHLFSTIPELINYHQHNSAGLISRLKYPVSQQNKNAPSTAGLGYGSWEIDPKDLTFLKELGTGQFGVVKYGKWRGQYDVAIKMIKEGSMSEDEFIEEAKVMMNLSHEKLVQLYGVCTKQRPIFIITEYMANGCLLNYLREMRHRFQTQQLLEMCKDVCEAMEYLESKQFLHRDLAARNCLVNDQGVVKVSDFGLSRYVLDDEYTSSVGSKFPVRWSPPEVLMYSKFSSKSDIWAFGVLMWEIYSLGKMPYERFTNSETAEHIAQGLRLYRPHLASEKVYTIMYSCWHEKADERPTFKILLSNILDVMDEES
Chain of MAP3K5 (human) (Q99683 whole entry, looked up): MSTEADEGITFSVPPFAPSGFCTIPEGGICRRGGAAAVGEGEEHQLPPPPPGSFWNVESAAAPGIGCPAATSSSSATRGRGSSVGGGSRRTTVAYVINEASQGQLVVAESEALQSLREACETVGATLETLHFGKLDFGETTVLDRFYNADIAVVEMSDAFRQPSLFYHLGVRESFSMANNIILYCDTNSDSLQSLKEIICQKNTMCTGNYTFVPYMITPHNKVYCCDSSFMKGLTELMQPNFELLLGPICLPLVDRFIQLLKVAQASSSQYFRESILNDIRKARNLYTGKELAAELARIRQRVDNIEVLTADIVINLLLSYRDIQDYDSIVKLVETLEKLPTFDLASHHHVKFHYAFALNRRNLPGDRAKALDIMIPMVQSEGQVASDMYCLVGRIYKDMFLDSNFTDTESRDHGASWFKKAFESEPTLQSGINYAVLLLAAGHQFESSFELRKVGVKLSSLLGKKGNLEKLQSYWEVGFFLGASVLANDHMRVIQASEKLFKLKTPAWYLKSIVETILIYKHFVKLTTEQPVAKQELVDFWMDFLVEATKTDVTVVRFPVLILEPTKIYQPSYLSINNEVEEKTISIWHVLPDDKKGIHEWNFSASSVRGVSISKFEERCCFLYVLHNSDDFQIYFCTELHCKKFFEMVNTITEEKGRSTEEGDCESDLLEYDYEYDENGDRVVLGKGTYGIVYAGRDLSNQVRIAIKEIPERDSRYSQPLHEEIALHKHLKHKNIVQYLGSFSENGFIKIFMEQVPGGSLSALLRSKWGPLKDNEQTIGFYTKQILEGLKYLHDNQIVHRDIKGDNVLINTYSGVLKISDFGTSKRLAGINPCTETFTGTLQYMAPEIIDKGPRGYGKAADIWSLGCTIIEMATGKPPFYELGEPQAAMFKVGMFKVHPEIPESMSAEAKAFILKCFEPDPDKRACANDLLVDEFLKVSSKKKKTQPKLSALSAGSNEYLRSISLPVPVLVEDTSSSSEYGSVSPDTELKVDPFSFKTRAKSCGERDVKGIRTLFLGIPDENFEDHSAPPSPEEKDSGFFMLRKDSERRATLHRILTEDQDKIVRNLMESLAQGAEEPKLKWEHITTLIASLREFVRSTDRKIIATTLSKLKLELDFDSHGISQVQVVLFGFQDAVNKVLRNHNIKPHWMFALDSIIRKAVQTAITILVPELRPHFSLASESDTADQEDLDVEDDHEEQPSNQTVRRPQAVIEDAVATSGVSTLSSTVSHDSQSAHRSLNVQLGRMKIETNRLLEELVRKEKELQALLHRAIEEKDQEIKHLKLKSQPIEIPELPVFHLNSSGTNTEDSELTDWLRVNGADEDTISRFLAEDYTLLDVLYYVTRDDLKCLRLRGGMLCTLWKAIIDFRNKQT
Chain of MAP2K7 (human) (O14733 whole entry, looked up): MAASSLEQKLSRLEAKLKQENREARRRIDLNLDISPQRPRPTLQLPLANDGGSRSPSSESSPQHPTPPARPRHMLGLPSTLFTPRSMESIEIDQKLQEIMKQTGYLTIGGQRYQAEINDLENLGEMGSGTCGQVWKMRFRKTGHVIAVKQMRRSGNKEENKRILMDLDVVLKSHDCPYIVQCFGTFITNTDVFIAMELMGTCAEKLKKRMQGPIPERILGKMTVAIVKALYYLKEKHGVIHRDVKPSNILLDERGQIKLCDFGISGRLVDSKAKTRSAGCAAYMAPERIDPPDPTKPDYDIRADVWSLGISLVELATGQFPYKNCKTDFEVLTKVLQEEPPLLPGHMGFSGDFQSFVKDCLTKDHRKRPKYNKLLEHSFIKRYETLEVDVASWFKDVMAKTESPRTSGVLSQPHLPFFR

CNC(=O)c1cc(Oc2ccc(NC(=O)Nc3ccc(Cl)c(C(F)(F)F)c3)cc2)ccn1
inhibition (PKN1 (human); compound 0.02 µM): -40.2% | inhibition (PKN1 (human); compound 0.2 µM): -39.4% | inhibition (PLK2 (human); compound 0.02 µM): -0.6% | inhibition (PLK2 (human); compound 0.2 µM): -2.1% | inhibition (SRPK1 (human); compound 0.02 µM): -5.4% | inhibition (SRPK1 (human); compound 0.2 µM): 0.2% | inhibition (BTK (human); compound 0.02 µM): -0.7% | inhibition (BTK (human); compound 0.2 µM): 14.6% | inhibition (CLK3 (human); compound 0.02 µM): -7.5% | inhibition (CLK3 (human); compound 0.2 µM): 5.9% | inhibition (IGF1R (human); compound 0.02 µM): -1.8% | inhibition (IGF1R (human); compound 0.2 µM): 5% | inhibition (PAK6 (human); compound 0.02 µM): -6.6% | inhibition (PAK6 (human); compound 0.2 µM): -32.1% | inhibition (STK38 (human); compound 0.02 µM): -2.5% | inhibition (STK38 (human); compound 0.2 µM): 4.8% | inhibition (SYK (human); compound 0.02 µM): -7.3% | inhibition (SYK (human); compound 0.2 µM): -11.1% | inhibition (BMPR1A (human); compound 0.02 µM): 6.9% | inhibition (BMPR1A (human); compound 0.2 µM): 7% | inhibition (LIMK1 (human); compound 0.02 µM): 2.6% | inhibition (LIMK1 (human); compound 0.2 µM): 13% | inhibition (MAP2K1 (human); compound 0.02 µM): 13.7% | inhibition (MAP2K1 (human); compound 0.2 µM): 17.4% | inhibition (MAP2K2 (human); compound 0.02 µM): -1.8% | inhibition (MAP2K2 (human); compound 0.2 µM): -2.7% | inhibition (MAP2K3 (human); compound 0.02 µM): 9.8% | inhibition (MAP2K3 (human); compound 0.2 µM): 58.5% | inhibition (MAP2K4 (human); compound 0.02 µM): 1.7% | inhibition (MAP2K4 (human); compound 0.2 µM): 3.6% | inhibition (MAP2K5 (human); compound 0.02 µM): 3.6% | inhibition (MAP2K5 (human); compound 0.2 µM): 6.2% | inhibition (MAP2K6 (human); compound 0.02 µM): 13.6% | inhibition (MAP2K6 (human); compound 0.2 µM): 64.2% | inhibition (MAP2K7 (human); compound 0.02 µM): -0.7% | inhibition (MAP2K7 (human); compound 0.2 µM): 1.1% | inhibition (MAP3K1 (human); compound 0.02 µM): 0.7% | inhibition (MAP3K1 (human); compound 0.2 µM): -0.2% | inhibition (MAP3K10 (human); compound 0.02 µM): -1.8% | inhibition (MAP3K10 (human); compound 0.2 µM): -2.3% | inhibition (MAP3K11 (human); compound 0.02 µM): 2.4% | inhibition (MAP3K11 (human); compound 0.2 µM): -2.6% | inhibition (MAP3K12 (human); compound 0.02 µM): 4.1% | inhibition (MAP3K12 (human); compound 0.2 µM): 2.7% | inhibition (MAP3K2 (human); compound 0.02 µM): 5.2% | inhibition (MAP3K2 (human); compound 0.2 µM): 5.2% | inhibition (MAP3K3 (human); compound 0.02 µM): -2.1% | inhibition (MAP3K3 (human); compound 0.2 µM): -3% | inhibition (MAP3K4 (human); compound 0.02 µM): 8.5% | inhibition (MAP3K4 (human); compound 0.2 µM): 4.4% | inhibition (MAP3K5 (human); compound 0.02 µM): 9.6% | inhibition (MAP3K5 (human); compound 0.2 µM): 7.4% | inhibition (MAP3K8 (human); compound 0.02 µM): 0.5% | inhibition (MAP3K8 (human); compound 0.2 µM): 0.2% | inhibition (MAP3K9 (human); compound 0.02 µM): 8.6% | inhibition (MAP3K9 (human); compound 0.2 µM): 10.1% | inhibition (MOS (human); compound 0.02 µM): 3% | inhibition (MOS (human); compound 0.2 µM): 0.5% | inhibition (PLK4 (human); compound 0.02 µM): 10.5% | inhibition (PLK4 (human); compound 0.2 µM): 13.4% | inhibition (RAF1 (human); compound 0.02 µM): 41.7% | inhibition (RAF1 (human); compound 0.2 µM): 88.1% | inhibition (STK11 (human); compound 0.02 µM): 6.4% | inhibition (STK11 (human); compound 0.2 µM): 6.2% | inhibition (TTK (human); compound 0.02 µM): -7.6% | inhibition (TTK (human); compound 0.2 µM): -4.3% | inhibition (WEE1 (human); compound 0.02 µM): -7.4% | inhibition (WEE1 (human); compound 0.2 µM): -2%
